From patent publication US20210077382A1, “COMPOSITIONS, DEVICES, AND METHODS FOR THE TREATMENT OF OPIOID-RECEPTOR-MEDIATED CONDITIONS” (Opiant Phamaceuticals, Inc., priority 2016, published 2021)

Key:
[1] = Safety assessments (adverse events, vital signs, ECG, nasal irritation) in the clinical study; assay type: in vivo, human
Experimental: On dosing days, the order of assessments was ECG, vital signs, then PK blood collection when scheduled at the same nominal times. The target time of the PK blood collection was considered the most critical and if the collection was more than ±1 minute from the scheduled time for the first 60 minutes of collections or more than ±5 minutes for the scheduled time points thereafter, this was considered a protocol deviation. ECG and vital signs were collected within the 10-minute period before the nominal time of blood collections. At screening, admission, and discharge, ECG, and vital signs were checked once per day. […] Clinical laboratory measurements were repeated after the last PK blood draw prior to clinic discharge. AEs were assessed by spontaneous reports by subjects, by examination of the nasal mucosa, by measuring vital signs, ECG, and clinical laboratory parameters.
Safety Assessments. […] ECG and vital signs were performed within the 10-minute period before the nominal time for post-dose blood collections. Adverse events (AEs) were recorded from the start of study drug administration until clinic discharge.

[2] = reported to be as low as; Gonzalez and Brogden 1988; cited from earlier work
[3] = Clinical pharmacokinetic crossover study of IN, IM and oral naltrexone; plasma naltrexone and 6β-naltrexol by LC-MS/MS; settings: 4 mg IN; 5 minutes postdose
Source text: Study Goals. […] Secondary endpoints included adverse events (AEs), vital signs (heart rate, sitting blood pressure, and respiration rate), electrocardiogram (ECG), clinical laboratory changes and nasal irritation using the nasal irritation scale.
Study design. […] This was an in-patient open-label, crossover study involving approximately 14 healthy volunteers. […] Subjects stayed in the in-patient facility for 13 days to complete the entire study. Subjects were called 3 to 5 days after discharge to inquire concerning AEs and concomitant medications since discharge. Informed consent was obtained from all subjects, and all were screened for eligibility to participate in the study, including medical history, physical examination, clinical chemistry, coagulation markers, hematology, infectious disease serology, urinalysis, urine drug and alcohol toxicology screen, vital signs and ECG.
On days of study drug administration, a 12-lead ECG was performed approximately 1 hour prior to dosing and at approximately 1 and 4 hours post-dose. Vital signs were measured pre-dose and about 1 and 4 hours post-dose.
Study Drugs and Dosing. […] The IN (40 mg/mL) formulations were made by the staff pharmacist at Vince & Associates; the vehicle for the IN formulations was sterile water for injection. The IM formulation (2 mg/mL) was made by the staff pharmacist at Vince & Associates; the vehicle was sterile saline for injection.
Subjects stayed in the in-patient facility for 13 days to complete the entire study and were discharged 2 days after the fourth dose.
PK Assessments. […] Plasma was separated from whole blood and stored frozen at […] until assayed.
Analysis. […] Dose-adjusted values for AUCs and Cmax were calculated. The relative extent of IN and PO absorption (IN and PO versus IM) will be estimated from the dose-corrected AUCs.

[4] = intranasal formulation with […] Intravail; cited from earlier work
[5] = same conditions as naltrexone; cited from earlier work

O=C1CC[C@@]2(O)[C@H]3Cc4ccc(O)c5c4[C@@]2(CCN3CC2CC2)[C@H]1O5 [naltrexone, 17-(cyclopropylmethyl)-4,5a-epoxy-3,14-dihydroxymorphinan-6-one]
Subjects with dizziness (most frequent AE regardless of severity or attribution) ([1]; 5 subjects of 14): 36%
Subjects with AEs of the Nervous System Disorders SOC (most frequent AEs) ([1]; 7 subjects of 14): 50%
Severe AEs ([1]; all dosing periods): No severe AEs were observed
Moderate AEs ([1]; dizziness after the first dose (4 mg IN), considered related to the study agent): one
Subjects discontinued from the study due to AEs ([1]; hypertension, syncope, out-of-range pre-dose vital signs): Three
Treatment-related unexpected AE ([1]; mild syncope after the Day 1 dose (4 mg IN)): one
Subjects who experienced at least one AE ([1]; safety population, 10 of 14 subjects, any dosing period, any relationship to drug): 71%
Subjects who experienced unexpected AEs ([1]; two UAEs considered unrelated to the study agent): Three
Oral bioavailability [2]: 5%
Difference of mean naltrexone concentrations with and without Intravail [3]: 8 fold

CNS(=O)(=O)Cc1ccc2[nH]cc(CCN(C)C)c2c1 [sumatriptan]
Increase of maximum plasma concentration in comparison to Imitrex nasal spray [4]: almost four-fold
Increase of total exposure (AUC) [4]: 32%
Tmax [4]: 8 to 10 min

C=C1CC[C@@]2(O)[C@H]3Cc4ccc(O)c5c4[C@@]2(CCN3CC2CC2)[C@H]1O5 [nalmefene, 17-cyclopropylmethyl-4,5α-epoxy-6-methylenemorphinan-3,14-diol]
Change of AUC when an alkylsaccharide is added to the intranasal formulation [5]: do not have increased AUC
